Consider five molecules from patent EP4790066A1, “GLP-1R/GIPR/GCGR TRIPLE AGONIST ANALOGUE AND USE THEREOF” (Shenzhen Bay Laboratory, priority 2023, dated 2025).

Each structure is given as a SMILES string. *1 amine or outer side, *2 acyl side, *3 side chain or, on linkers, in order; H or OH if unused. Where a SMILES comes first, the peptide text is derived from it. Bridges are numbered along the chain shown (N, C = ends). [ ]: non-standard residue; d: D form. X1 = O=C(O)CCCCCCCCCCCCCCCCCCC(=O)N[C@@H](CCCCNC(=O)COCCOCCNC(=O)COCCOCCNC(=O)CCC(=O)N(CCNC(=O)C[*:1])CCNC(=O)C[*:2])C(=O)O; tBuAla = CC(C)(C)C[C@H](N)C(=O)O; αMeL = CC(C)C[C@](C)(N)C(=O)O; Aib = CC(C)(N)C(=O)O

Type in all cases: cell-based
For one experiment, the target named is T1, GLP-1R (Homo sapiens, UniProt P43220).
T1 construct: expressed in transfected cells
T1 sequence (P43220 24-463, species assumed): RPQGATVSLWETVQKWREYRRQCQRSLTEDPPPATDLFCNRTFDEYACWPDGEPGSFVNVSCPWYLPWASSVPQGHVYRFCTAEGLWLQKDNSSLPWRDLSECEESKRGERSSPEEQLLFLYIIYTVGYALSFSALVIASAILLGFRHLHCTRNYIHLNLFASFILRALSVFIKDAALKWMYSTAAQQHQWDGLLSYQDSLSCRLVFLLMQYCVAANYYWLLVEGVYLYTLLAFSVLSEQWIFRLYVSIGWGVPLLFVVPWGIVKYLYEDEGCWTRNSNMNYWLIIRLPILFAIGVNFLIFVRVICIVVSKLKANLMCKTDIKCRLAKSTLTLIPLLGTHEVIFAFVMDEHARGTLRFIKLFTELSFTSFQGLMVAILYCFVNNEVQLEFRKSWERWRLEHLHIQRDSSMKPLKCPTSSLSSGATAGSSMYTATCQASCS
Nature of the experiment: CreLuc method (CRE-luciferase reporter), HEK293/pGM-CREB-L-Luc/GLP-1R pool. To be noted: 6 h incubation, read-out: EC50 (pM) for each receptor GLP-1R. As to the method: (§1) 1. Insulinotropic analogues can bind to the target receptor on the cell membrane, activate the cAMP response element (CRE), and initiate the expression of downstream luciferase. The expression level is positively correlated with the biological activity of the analogue being tested. After activation, luciferase substrate is added for chemiluminescence detection, and the luminescence intensity is determined to characterize the biological activity of the test compounds. Therefore, the target peptide derivatives (or polypeptide derivatives, i.e., TG1-TG94) prepared in Example 1 and Example 2 can be tested by the CreLuc method. The specific steps are as follows: The stably transfected cell lines HEK293/pGM-CREB-L-Luc/GLP-1R pool, HEK293/pGM-CREB-L-Luc/GIPR pool, and 293HEK/pGM-CREB-L-Luc/GCGR pool were constructed. […] The corresponding test cells were digested (1 min), dispersed by pipetting, and centrifuged (1000 rpm, 5 min). The culture medium was discarded, and the cells were resuspended in freestyle medium, centrifuged again, collected, and counted. The cells were then diluted to a cell density of 5 x 10^5 cells/mL and then added to the detection wells of a 384-well plate (40 µL/20,000 cells/well). Echo was used to add the corresponding analyte dilution series. The cell plate was incubated at 37°C and 5% CO2 for 6 h, then ONE-GLO (20 µL/well) was added for detection. It was kept in the dark for 3 min, then a chemiluminescent microplate reader was used for determination. The plate was read within 30 min, and the determination results were recorded. […] Table 3: EC50 values for target peptide derivatives
(In general: In a reporter assay the amount or activity of a reporter protein is the signal.)

The next experiment has as its target T2, GIPR (Homo sapiens, UniProt P48546).
T2 construct: expressed in transfected cells
T2 sequence (P48546 22-466): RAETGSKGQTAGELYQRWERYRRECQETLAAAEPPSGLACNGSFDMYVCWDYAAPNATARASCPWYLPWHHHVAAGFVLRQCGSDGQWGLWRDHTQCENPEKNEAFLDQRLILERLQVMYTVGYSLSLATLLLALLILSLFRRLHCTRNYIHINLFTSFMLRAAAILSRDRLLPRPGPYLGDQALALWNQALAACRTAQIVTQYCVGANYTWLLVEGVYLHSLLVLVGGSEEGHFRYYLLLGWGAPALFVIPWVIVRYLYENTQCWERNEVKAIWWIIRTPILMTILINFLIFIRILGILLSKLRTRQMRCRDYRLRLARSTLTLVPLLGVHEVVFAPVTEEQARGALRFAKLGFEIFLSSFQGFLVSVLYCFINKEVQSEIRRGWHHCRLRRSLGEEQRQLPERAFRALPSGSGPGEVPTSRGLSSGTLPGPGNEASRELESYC
Nature of the experiment: CreLuc method (CRE-luciferase reporter), HEK293/pGM-CREB-L-Luc/GIPR pool. As to conditions: 6 h incubation, read-out: EC50 (pM) for each receptor GIPR. The procedure: as §1

Another experiment deals with T3, GCGR (Homo sapiens, UniProt P47871).
T3 construct: expressed in transfected cells
T3 sequence (P47871 26-477, species assumed): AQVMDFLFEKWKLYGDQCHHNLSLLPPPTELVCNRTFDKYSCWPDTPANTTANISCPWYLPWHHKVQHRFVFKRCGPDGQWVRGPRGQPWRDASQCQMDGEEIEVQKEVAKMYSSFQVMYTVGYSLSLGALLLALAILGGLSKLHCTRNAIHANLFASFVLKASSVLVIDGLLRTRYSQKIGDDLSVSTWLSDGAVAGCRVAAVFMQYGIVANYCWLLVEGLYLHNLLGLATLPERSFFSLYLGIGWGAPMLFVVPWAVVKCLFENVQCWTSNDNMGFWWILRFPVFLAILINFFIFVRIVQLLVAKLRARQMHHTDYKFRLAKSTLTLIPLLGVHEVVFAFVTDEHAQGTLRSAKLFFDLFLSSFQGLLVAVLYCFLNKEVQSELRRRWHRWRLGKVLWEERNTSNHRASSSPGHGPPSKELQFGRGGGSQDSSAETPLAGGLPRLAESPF
Nature of the experiment: CreLuc method (CRE-luciferase reporter), 293HEK/pGM-CREB-L-Luc/GCGR pool. To be noted: 6 h incubation, read-out: EC50 (pM) for each receptor GCGR. As to the method:
as §1

A word on the EC50: it is the concentration needed to bring the measured effect to its halfway point.

Regarding `CC[C@H](C)[C@@H]1NC(=O)[C@H](Cc2ccccc2)NC(=O)[C@@H](NC(=O)C(C)(C)NC(=O)[C@H](CCC(N)=O)NC(=O)[C@H](C)NC(=O)[C@H](CCCCNC(C)=O)NC(=O)[C@H](CCCCN)NC(=O)[C@H](CC(=O)O)NC(=O)[C@H](CC(C)(C)C)NC(=O)[C@](C)(CC(C)C)NC(=O)[C@@H](NC(=O)[C@H](CO)NC(=O)[C@H](Cc2ccc(O)cc2)NC(=O)[C@H](CC(=O)O)NC(=O)[C@H](CO)NC(=O)[C@@H](NC(=O)[C@H](Cc2ccccc2)NC(=O)[C@@H](NC(=O)CNC(=O)[C@H](CCC(N)=O)NC(=O)C(C)(C)NC(=O)[C@@H](N)Cc2ccc(O)cc2)[C@@H](C)O)[C@@H](C)O)[C@@H](C)CC)CSCC(=O)NCCN(C(=O)CCC(=O)NCCOCCOCC(=O)NCCOCCOCC(=O)NCCCC[C@H](NC(=O)CCCCCCCCCCCCCCCCCCC(=O)O)C(=O)O)CCNC(=O)CSC[C@@H](C(=O)NCC(=O)NCC(=O)N2CCC[C@H]2C(=O)N[C@@H](CO)C(=O)N[C@@H](CO)C(=O)NCC(=O)N[C@@H](C)C(=O)N2CCC[C@H]2C(=O)N2CCC[C@H]2C(=O)N2CCC[C@H]2C(=O)N[C@@H](CO)C(N)=O)NC(=O)[C@H](CC(C)C)NC(=O)[C@H](CC(C)C)NC(=O)[C@H](Cc2ccc(O)cc2)NC(=O)[C@H](CCC(=O)O)NC1=O` [TG26] (H-Y[Aib]QGTFTSDYSI[αMeL][tBuAla]DKK(Ac)AQ[Aib]CFIEYLLCGGPSSGAPPPS-NH2; linker 21-28 via X1), the results for the EC50 at GLP-1R, at GIPR and at GCGR were 149 pM, 59.4 pM and 360 pM, respectively.

On to `CC[C@H](C)[C@H](NC(=O)[C@H](CO)NC(=O)[C@H](Cc1ccc(O)cc1)NC(=O)[C@H](CC(=O)O)NC(=O)[C@H](CO)NC(=O)[C@@H](NC(=O)[C@H](Cc1ccccc1)NC(=O)[C@@H](NC(=O)CNC(=O)[C@H](Cc1c[nH]cn1)NC(=O)C(C)(C)NC(=O)[C@@H](N)Cc1c[nH]cn1)[C@@H](C)O)[C@@H](C)O)C(=O)N[C@@H](Cc1ccc(O)cc1)C(=O)N[C@H]1CSCC(=O)NCCN(C(=O)CCC(=O)NCCOCCOCC(=O)NCCOCCOCC(=O)NCCCC[C@H](NC(=O)CCCCCCCCCCCCCCCCCCC(=O)O)C(=O)O)CCNC(=O)CSC[C@@H](C(=O)N[C@@H](Cc2ccccc2)C(=O)N[C@H](C(=O)N[C@@H](CCC(N)=O)C(=O)N[C@@H](Cc2c[nH]c3ccccc23)C(=O)N[C@@H](CC(C)C)C(=O)N[C@@H](CC(C)C)C(=O)N[C@@H](CCC(=O)O)C(=O)NCC(=O)NCC(=O)N2CCC[C@H]2C(=O)N[C@@H](CO)C(=O)N[C@@H](CO)C(=O)NCC(=O)N[C@@H](C)C(=O)N2CCC[C@H]2C(=O)N2CCC[C@H]2C(=O)N2CCC[C@H]2C(=O)N[C@@H](CO)C(N)=O)C(C)C)NC(=O)C(C)(C)NC(=O)[C@H](C)NC(=O)[C@H](Cc2ccc(O)cc2)NC(=O)[C@H](CCCNC(=N)N)NC(=O)[C@H](CCCCN)NC(=O)[C@H](CCC(=O)O)NC1=O` [TG8], for which the EC50 was 243 pM at GLP-1R, 426 pM at GIPR and 836 pM on GCGR.

For the molecule `CC[C@H](C)[C@@H]1NC(=O)[C@H](Cc2ccccc2)NC(=O)[C@@H](NC(=O)C(C)(C)NC(=O)[C@H](CCC(N)=O)NC(=O)[C@H](C)NC(=O)[C@H](CCCCNC(C)=O)NC(=O)[C@H](CCCCN)NC(=O)[C@H](CCC(=O)O)NC(=O)[C@H](CC(C)C)NC(=O)[C@](C)(CC(C)C)NC(=O)[C@@H](NC(=O)[C@H](CO)NC(=O)[C@H](Cc2ccc(O)cc2)NC(=O)[C@H](CC(=O)O)NC(=O)[C@H](CO)NC(=O)[C@@H](NC(=O)[C@H](Cc2ccccc2)NC(=O)[C@@H](NC(=O)CNC(=O)[C@H](CCC(N)=O)NC(=O)C(C)(C)NC(=O)[C@@H](N)Cc2ccc(O)cc2)[C@@H](C)O)[C@@H](C)O)[C@@H](C)CC)CSCC(=O)NCCN(C(=O)CCC(=O)NCCOCCOCC(=O)NCCOCCOCC(=O)NCCCC[C@H](NC(=O)CCCCCCCCCCCCCCCCCCC(=O)O)C(=O)O)CCNC(=O)CSC[C@@H](C(=O)NCC(=O)NCC(=O)N2CCC[C@H]2C(=O)N[C@@H](CO)C(=O)N[C@@H](CO)C(=O)NCC(=O)N[C@@H](C)C(=O)N2CCC[C@H]2C(=O)N2CCC[C@H]2C(=O)N2CCC[C@H]2C(=O)N[C@@H](CO)C(N)=O)NC(=O)[C@H](CC(C)C)NC(=O)[C@H](CC(C)C)NC(=O)[C@H](Cc2ccc(O)cc2)NC(=O)[C@H](CCC(=O)O)NC1=O` [TG36], the results for the EC50 on GLP-1R, on GIPR and on GCGR were 34.1 pM, 10.8 pM and 813 pM, respectively.

As for `CC[C@H](C)[C@@H]1NC(=O)[C@H](Cc2ccccc2)NC(=O)[C@@H](NC(=O)C(C)(C)NC(=O)[C@H](CCC(N)=O)NC(=O)[C@H](C)NC(=O)[C@H](CCCCNC(C)=O)NC(=O)[C@H](CCCCN)NC(=O)[C@H](CC(=O)O)NC(=O)[C@H](CC(C)C)NC(=O)[C@](C)(CC(C)C)NC(=O)[C@@H](NC(=O)[C@H](CO)NC(=O)[C@H](Cc2ccc(O)cc2)NC(=O)[C@H](CC(=O)O)NC(=O)[C@H](CO)NC(=O)[C@@H](NC(=O)[C@](C)(Cc2ccccc2)NC(=O)[C@@H](NC(=O)CNC(=O)[C@H](CCC(N)=O)NC(=O)C(C)(C)NC(=O)[C@@H](N)Cc2ccc(O)cc2)[C@@H](C)O)[C@@H](C)O)[C@@H](C)CC)CSCC(=O)NCCN(C(=O)CCC(=O)NCCOCCOCC(=O)NCCOCCOCC(=O)NCCCC[C@H](NC(=O)CCCCCCCCCCCCCCCCCCC(=O)O)C(=O)O)CCNC(=O)CSC[C@@H](C(=O)NCC(=O)NCC(=O)N2CCC[C@H]2C(=O)N[C@@H](CO)C(=O)N[C@@H](CO)C(=O)NCC(=O)N[C@@H](C)C(=O)N2CCC[C@H]2C(=O)N2CCC[C@H]2C(=O)N2CCC[C@H]2C(=O)N[C@@H](CO)C(N)=O)NC(=O)[C@H](CC(C)C)NC(=O)[C@H](CC(C)C)NC(=O)[C@H](Cc2ccc(O)cc2)NC(=O)[C@H](CCC(=O)O)NC1=O` [TG23], the results for the EC50 at GLP-1R, on GIPR and at GCGR were 92.9 pM, 75.6 pM and 109 pM, respectively.

For the molecule `CC[C@H](C)[C@@H]1NC(=O)[C@H](Cc2ccccc2)NC(=O)[C@@H](NC(=O)[C@@H](C)NC(=O)[C@H](CCC(N)=O)NC(=O)[C@H](C)NC(=O)[C@H](CCCCNC(C)=O)NC(=O)[C@H](CCCCN)NC(=O)[C@H](CC(=O)O)NC(=O)[C@H](CC(C)C)NC(=O)[C@](C)(CC(C)C)NC(=O)[C@@H](NC(=O)[C@H](CO)NC(=O)[C@H](Cc2ccc(O)cc2)NC(=O)[C@H](CC(=O)O)NC(=O)[C@H](CO)NC(=O)[C@@H](NC(=O)[C@H](Cc2ccccc2)NC(=O)[C@@H](NC(=O)CNC(=O)[C@H](CCC(N)=O)NC(=O)C(C)(C)NC(=O)[C@@H](N)Cc2ccc(O)cc2)[C@@H](C)O)[C@@H](C)O)[C@@H](C)CC)CSCC(=O)NCCN(C(=O)CCC(=O)NCCOCCOCC(=O)NCCOCCOCC(=O)NCCCC[C@H](NC(=O)CCCCCCCCCCCCCCCCCCC(=O)O)C(=O)O)CCNC(=O)CSC[C@@H](C(=O)NCC(=O)NCC(=O)N2CCC[C@H]2C(=O)N[C@@H](CO)C(=O)N[C@@H](CO)C(=O)NCC(=O)N[C@@H](C)C(=O)N2CCC[C@H]2C(=O)N2CCC[C@H]2C(=O)N2CCC[C@H]2C(=O)N[C@@H](CO)C(N)=O)NC(=O)[C@H](CC(C)C)NC(=O)[C@H](CC(C)C)NC(=O)[C@H](Cc2ccc(O)cc2)NC(=O)[C@H](CCC(=O)O)NC1=O` [TG31] (H-Y[Aib]QGTFTSDYSI[αMeL]LDKK(Ac)AQ[dA]CFIEYLLCGGPSSGAPPPS-NH2; linker 21-28 via X1), the EC50 on GLP-1R stood at 32.7 pM; on GIPR, 11.4 pM; at GCGR, 440 pM.
